This is an account of results in ChEMBL document CHEMBL1275273, “QSAR prediction of D2 receptor antagonistic activity of 6-methoxy benzamides” (Eur J Med Chem, 2010).

D(2) dopamine receptor, sequence (P14416 whole entry): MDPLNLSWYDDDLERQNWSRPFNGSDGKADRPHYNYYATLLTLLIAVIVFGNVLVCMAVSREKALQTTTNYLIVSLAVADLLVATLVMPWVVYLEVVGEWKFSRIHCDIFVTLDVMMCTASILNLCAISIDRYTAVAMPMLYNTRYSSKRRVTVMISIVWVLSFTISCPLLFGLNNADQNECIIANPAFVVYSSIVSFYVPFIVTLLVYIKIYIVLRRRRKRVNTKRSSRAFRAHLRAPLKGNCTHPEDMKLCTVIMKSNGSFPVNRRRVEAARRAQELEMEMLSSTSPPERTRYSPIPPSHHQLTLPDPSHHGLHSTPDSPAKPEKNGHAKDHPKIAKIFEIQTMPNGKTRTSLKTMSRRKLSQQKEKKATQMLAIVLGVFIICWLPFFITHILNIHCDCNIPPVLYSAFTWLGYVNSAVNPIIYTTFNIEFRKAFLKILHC

This assay concerns the target D(2) dopamine receptor (Homo sapiens, UniProt P14416). Kind of assay: Antagonist activity at dopamine D2 receptor. The class given is functional.
Broadly, the IC50 is the concentration at which inhibition is half-maximal. In turn, `CCCc1cc(O)c(OC)c(C(=O)NC[C@@H]2CCCN2CC)c1C` showed an IC50 of 5.01 nM.

In turn, `CCc1ccc(O)c(OC)c1C(=O)NC[C@@H]1CCCN1CC` gave an IC50 of 123 nM.

Regarding `CCN1CCC[C@H]1CNC(=O)c1c(Br)c(OC)cc(O)c1OC`, half-maximal inhibition (IC50) was put at 67.6 nM.

Turning to `CCN1CCC[C@H]1CNC(=O)c1c(OC)ccc(Br)c1O`, the IC50 is 10 nM.

Compound `CCN1CCC[C@H]1CNC(=O)c1c(C)c(Cl)cc(O)c1OC` gave an IC50 of 11 nM.

Compound `CCCc1cc(O)c(OC)c(C(=O)NC[C@@H]2CCCN2CC)c1Cl` had an IC50 of 3.24 nM.

Compound `CCN1CCC[C@H]1CNC(=O)c1c(OC)c(O)cc(Cl)c1OC` had an IC50 of 1.7 nM.

On to `CCN1CCC[C@H]1CNC(=O)c1cc(Cl)cc(O)c1OC`, for which the IC50 is 38.9 nM.

`CCN1CCC[C@H]1CNC(=O)c1cc([N+](=O)[O-])cc(O)c1OC` gave a concentration for half-maximal inhibition (IC50) of 3020 nM.

The compound `CCN1CCC[C@H]1CNC(=O)c1c(Br)c(C)cc(O)c1OC` showed an IC50 of 5.5 nM.

`CCN1CCC[C@H]1CNC(=O)c1c(C)c(C)cc(O)c1OC` showed an IC50 of 7.76 nM.

The compound `CCN1CCC[C@H]1CNC(=O)c1c(Br)ccc(O)c1OC` showed a half-inhibitory concentration (IC50) of 56.2 nM.

`CCN1CCC[C@H]1CNC(=O)c1c(OC)c(O)cc(Br)c1[N+](=O)[O-]`: the 50% inhibitory concentration (IC50) is 186 nM.

As to `CCc1cc(O)c(OC)c(C(=O)NC[C@@H]2CCCN2CC)c1Cl`, the IC50 was 0.912 nM.

`CCCc1c(Cl)cc(O)c(OC)c1C(=O)NC[C@@H]1CCCN1CC` had an IC50 of 110 nM.

With `CCCCc1ccc(OC)c(C(=O)NC[C@@H]2CCCN2CC)c1OC`, the IC50 is 2.69 nM.

The compound `CCc1c(Cl)cc(O)c(OC)c1C(=O)NC[C@@H]1CCCN1CC` had an IC50 of 12 nM.

Regarding `CCN1CCC[C@H]1CNC(=O)c1c(Br)c(Cl)cc(O)c1OC`, the IC50 is 57.5 nM.

Turning to `CCN1CCC[C@H]1CNC(=O)c1cc(Br)ccc1OC`, 45.7 nM corresponded to half-maximal inhibition (IC50).

Consider `CCCc1cc(O)c(OC)c(C(=O)NC[C@@H]2CCCN2CC)c1`, for which it took 0.501 nM to reach half-maximal inhibition (IC50).

The compound `CCc1ccc(OC)c(C(=O)NC[C@@H]2CCCN2CC)c1Cl` had an IC50 of 4.17 nM.

`CCN1CCC[C@H]1CNC(=O)c1c(Cl)c(OC)cc(O)c1OC` gave an IC50 of 70.8 nM.

Take `CCN1CCC[C@H]1CNC(=O)c1c(Br)c(Br)cc(O)c1OC`: the IC50 was 25.7 nM.

For the compound `CCN1CCC[C@H]1CNC(=O)c1c(OC)ccc(O)c1OC`, the IC50 is 8.71 nM.

Turning to `CCc1c(Br)cc(O)c(OC)c1C(=O)NC[C@@H]1CCCN1CC`, the IC50 was 17 nM.

Compound `CCN1CCC[C@H]1CNC(=O)c1c(OC)c(O)cc(Br)c1OC` had a half-inhibitory concentration (IC50) of 1.41 nM.

On to `CCN1CCC[C@H]1CNC(=O)c1cc(I)cc(O)c1OC`, for which 3.02 nM corresponded to half-maximal inhibition (IC50).

In the case of `CCc1ccc(OC)c(C(=O)NC[C@@H]2CCCN2CC)c1Br`, the IC50 is 11 nM.

`CCN1CCC[C@H]1CNC(=O)c1c(OC)ccc(Cl)c1Br` gave an IC50 of 5.62 nM.

For the compound `CCc1ccc(OC)c(C(=O)NC[C@@H]2CCCN2CC)c1`, the IC50 was 39.8 nM.

In turn, `CCc1cc(O)c(OC)c(C(=O)NC[C@@H]2CCCN2CC)c1` had an IC50 of 2.88 nM.

The compound `CCN1CCC[C@H]1CNC(=O)c1cc(Br)cc(O)c1OC` gave a concentration for half-maximal inhibition (IC50) of 8.32 nM.

Take `CCN1CCC[C@H]1CNC(=O)c1c(OC)ccc(Cl)c1Cl`: it took 20 nM to reach half-maximal inhibition (IC50).

Turning to `CCCc1c(C)cc(O)c(OC)c1C(=O)NC[C@@H]1CCCN1CC`, the IC50 is 141 nM.

Consider `CCc1cc(O)c(OC)c(C(=O)NC[C@@H]2CCCN2CC)c1Br`, for which the IC50 is 2.29 nM.

On to `CCN1CCC[C@H]1CNC(=O)c1c(OC)ccc(C)c1OC`, for which it took 5.25 nM to reach half-maximal inhibition (IC50).

The compound `CCN1CCC[C@H]1CNC(=O)c1c(C)c(Br)cc(O)c1OC` had an IC50 of 11 nM.

`CCN1CCC[C@H]1CNC(=O)c1cc(OC)cc(O)c1OC` showed an IC50 of 204 nM.

`CCc1cc(O)c(OC)c(C(=O)NC[C@@H]2CCCN2CC)c1F`: the IC50 is 1.51 nM.

Turning to `CCN1CCC[C@H]1CNC(=O)c1c(Cl)ccc(O)c1OC`, the IC50 is 64.6 nM.

In the case of `CCN1CCC[C@H]1CNC(=O)c1c(OC)cccc1OC`, the IC50 is 52.5 nM.

For the compound `CCN1CCC[C@H]1CNC(=O)c1c(Cl)c(Cl)cc(O)c1OC`, the IC50 is 32.4 nM.

In the case of `CCc1ccc(OC)c(C(=O)NC[C@@H]2CCCN2CC)c1OC`, half-maximal inhibition (IC50) was put at 1.29 nM.

In turn, `CCN1CCC[C@H]1CNC(=O)c1cc(C)cc(O)c1OC` showed an IC50 of 19.1 nM.

Consider `CCN1CCC[C@H]1CNC(=O)c1c(Cl)c(Br)cc(O)c1OC`, for which the IC50 is 17 nM.

With `CCN1CCC[C@H]1CNC(=O)c1c(Cl)c(C)cc(O)c1OC`, half-maximal inhibition (IC50) was put at 25.7 nM.

As to `CCN1CCC[C@H]1CNC(=O)c1c(OC)c(O)cc(I)c1OC`, half-maximal inhibition (IC50) required 0.288 nM.

For the compound `CCN1CCC[C@H]1CNC(=O)c1cccc(O)c1OC`, the IC50 was 316 nM.

In turn, `CCN1CCC[C@H]1CNC(=O)c1cc(F)cc(O)c1OC` had an IC50 of 363 nM.

In turn, `CCCc1ccc(OC)c(C(=O)NC[C@@H]2CCCN2CC)c1` had an IC50 of 67.6 nM.

Compound `CCN1CCC[C@H]1CNC(=O)c1c(F)c(Br)cc(O)c1OC` had an IC50 of 7.08 nM.

Consider `CCc1cc(O)c(OC)c(C(=O)NC[C@@H]2CCCN2CC)c1CC`, for which the IC50 is 1.78 nM.

For the compound `CCc1cc(O)c(OC)c(C(=O)NC[C@@H]2CCCN2CC)c1OC`, half-maximal inhibition (IC50) required 1.29 nM.

With `CCN1CCC[C@H]1CNC(=O)c1c(OC)ccc(Br)c1Br`, the IC50 is 7.94 nM.

Compound `CCN1CCC[C@H]1CNC(=O)c1cc(Cl)ccc1OC` showed an IC50 of 257 nM.

Regarding `CCN1CCC[C@H]1CNC(=O)c1c(OC)ccc(SC)c1OC`, the IC50 was 1.1 nM.

`CCN1CCC[C@H]1CNC(=O)c1c(OC)ccc(I)c1OC` gave an IC50 of 0.676 nM.
